According to ChEMBL document CHEMBL5550199, “Rational In Silico Design of Selective TMPRSS6 Peptidomimetic Inhibitors via Exploitation of the S2 Subpocket” (J Med Chem, 2024):
In brackets after ≈: the same amount, converted by molar mass. Activity calls are given as the source filed them. The rule behind the calls is not given here.

How the values were obtained:
[1] = biological target: T1, Suppressor of tumorigenicity 14 protein (Homo sapiens, UniProt Q9Y5Y6); assay: Binding affinity to recombinant human Matriptase using Boc-QAR-AMC as substrate assessed as inhibition constant by fluorescence based analysis
T1 sequence (Q9Y5Y6 whole entry): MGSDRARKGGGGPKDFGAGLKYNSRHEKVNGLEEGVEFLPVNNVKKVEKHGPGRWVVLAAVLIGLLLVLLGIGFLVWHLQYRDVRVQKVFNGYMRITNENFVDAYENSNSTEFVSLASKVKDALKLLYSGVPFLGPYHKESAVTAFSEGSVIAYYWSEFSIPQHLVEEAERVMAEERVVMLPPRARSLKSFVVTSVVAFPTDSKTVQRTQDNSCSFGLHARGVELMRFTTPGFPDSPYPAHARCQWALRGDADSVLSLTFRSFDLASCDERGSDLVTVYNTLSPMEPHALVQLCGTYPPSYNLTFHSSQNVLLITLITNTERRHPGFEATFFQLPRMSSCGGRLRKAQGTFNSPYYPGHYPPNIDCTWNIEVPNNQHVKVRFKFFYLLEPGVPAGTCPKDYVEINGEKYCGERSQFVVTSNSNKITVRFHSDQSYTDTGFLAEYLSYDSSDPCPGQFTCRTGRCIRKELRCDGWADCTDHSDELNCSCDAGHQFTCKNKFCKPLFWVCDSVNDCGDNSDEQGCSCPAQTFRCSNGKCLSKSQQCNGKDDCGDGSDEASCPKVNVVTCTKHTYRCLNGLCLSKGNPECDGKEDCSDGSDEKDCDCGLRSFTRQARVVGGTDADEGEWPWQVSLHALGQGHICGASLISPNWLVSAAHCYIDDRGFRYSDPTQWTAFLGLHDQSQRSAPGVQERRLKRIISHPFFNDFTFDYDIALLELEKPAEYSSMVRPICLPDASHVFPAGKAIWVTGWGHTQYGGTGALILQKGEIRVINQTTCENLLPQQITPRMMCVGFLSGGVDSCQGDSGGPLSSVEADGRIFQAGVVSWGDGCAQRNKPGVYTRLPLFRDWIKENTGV

[2] = biological target: T2, Transmembrane protease serine 6 (Homo sapiens, UniProt Q8IU80); assay: Binding affinity to recombinant human TMPRSS6 using Boc-QAR-AMC as substrate assessed as inhibition constant by fluorescence based analysis
T2 sequence (Q8IU80 whole entry): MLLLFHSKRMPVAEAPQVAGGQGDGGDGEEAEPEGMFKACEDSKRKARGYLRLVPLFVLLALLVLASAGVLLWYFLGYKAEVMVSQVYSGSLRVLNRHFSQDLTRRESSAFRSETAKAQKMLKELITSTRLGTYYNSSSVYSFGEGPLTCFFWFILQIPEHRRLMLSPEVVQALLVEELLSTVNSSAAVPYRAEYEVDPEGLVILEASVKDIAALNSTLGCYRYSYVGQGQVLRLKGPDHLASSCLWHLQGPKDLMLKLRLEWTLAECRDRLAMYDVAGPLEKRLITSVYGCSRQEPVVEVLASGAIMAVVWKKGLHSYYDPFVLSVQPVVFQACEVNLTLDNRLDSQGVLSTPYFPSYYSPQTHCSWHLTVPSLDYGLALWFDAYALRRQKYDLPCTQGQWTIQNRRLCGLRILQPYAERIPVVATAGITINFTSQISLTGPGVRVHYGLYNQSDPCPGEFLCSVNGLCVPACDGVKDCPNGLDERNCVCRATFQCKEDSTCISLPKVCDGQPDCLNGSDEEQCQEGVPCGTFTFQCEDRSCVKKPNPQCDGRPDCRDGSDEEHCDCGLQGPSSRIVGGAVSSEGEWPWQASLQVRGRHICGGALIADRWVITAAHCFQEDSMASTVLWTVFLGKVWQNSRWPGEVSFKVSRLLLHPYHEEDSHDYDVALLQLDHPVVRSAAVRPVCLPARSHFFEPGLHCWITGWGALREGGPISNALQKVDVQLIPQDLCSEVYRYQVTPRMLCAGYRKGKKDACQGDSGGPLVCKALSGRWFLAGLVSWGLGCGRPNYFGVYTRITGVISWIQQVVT

Homo sapiens [3] = species: Homo sapiens; assay: Selectivity index, ratio of Ki for binding affinity to recombinant human Matriptase using Boc-QAR-AMC as substrate assessed as inhibition constant by fluorescence based analysis to Ki for binding affinity to recombinant human TMPRSS6 using Boc-QAR-AMC as substrate assessed as inhibition constant by fluorescence based analysis
[4] = biological target: T3, Suppressor of tumorigenicity 14 protein (Homo sapiens) (UniProt Q9Y5Y6); assay: Inhibition of recombinant human Matriptase at 100 nM by Michaelis-Menten analysis relative to control
T3 sequence (whole entry): T1 sequence (Q9Y5Y6 whole entry)

[5] = biological target: T4, Transmembrane protease serine 6 (Homo sapiens) (UniProt Q8IU80); assay: Inhibition of recombinant human TMPRSS6 at 100 nM by Michaelis-Menten analysis relative to control
T4 sequence (whole entry): T2 sequence (Q8IU80 whole entry)

[6] = Cytotoxicity against HEK cells assessed as reduction in cell viability measured for 24 hrs by celltiter-glo 2.0 assay; assay type: toxicity, cell-based; conditions: human
[7] = biological target: T1, Suppressor of tumorigenicity 14 protein; assay: Mixed inhibition of recombinant human Matriptase using Boc-QAR-AMC as substrate assessed as inhibition constant by fluorescence based analysis
[8] = Metabolic stability in Sprague-Dawley rat microsome assessed as half life measured for 120 mins in presence of NADPH by UPLC-MS analysis; assay type: ADME; conditions: microsomes, 2 h
Homo sapiens [9] = species: Homo sapiens; assay: Selectivity index, ratio of IC50 for inhibition of human Matriptase transfected in HEK293SL cells using Boc-QAR-AMC as substrate to IC50 for inhibition of human TMPRSS6 transfected in HEK293SL cells using Boc-QAR-AMC as substrate; assay type: cell-based
Furin = Furin (Homo sapiens, UniProt P09958); assay: Inhibition of recombinant human furin using Boc-RVRR-AMC as substrate assessed as inhibition constant by fluorescence based analysis
Furin, sequence (P09958 whole entry): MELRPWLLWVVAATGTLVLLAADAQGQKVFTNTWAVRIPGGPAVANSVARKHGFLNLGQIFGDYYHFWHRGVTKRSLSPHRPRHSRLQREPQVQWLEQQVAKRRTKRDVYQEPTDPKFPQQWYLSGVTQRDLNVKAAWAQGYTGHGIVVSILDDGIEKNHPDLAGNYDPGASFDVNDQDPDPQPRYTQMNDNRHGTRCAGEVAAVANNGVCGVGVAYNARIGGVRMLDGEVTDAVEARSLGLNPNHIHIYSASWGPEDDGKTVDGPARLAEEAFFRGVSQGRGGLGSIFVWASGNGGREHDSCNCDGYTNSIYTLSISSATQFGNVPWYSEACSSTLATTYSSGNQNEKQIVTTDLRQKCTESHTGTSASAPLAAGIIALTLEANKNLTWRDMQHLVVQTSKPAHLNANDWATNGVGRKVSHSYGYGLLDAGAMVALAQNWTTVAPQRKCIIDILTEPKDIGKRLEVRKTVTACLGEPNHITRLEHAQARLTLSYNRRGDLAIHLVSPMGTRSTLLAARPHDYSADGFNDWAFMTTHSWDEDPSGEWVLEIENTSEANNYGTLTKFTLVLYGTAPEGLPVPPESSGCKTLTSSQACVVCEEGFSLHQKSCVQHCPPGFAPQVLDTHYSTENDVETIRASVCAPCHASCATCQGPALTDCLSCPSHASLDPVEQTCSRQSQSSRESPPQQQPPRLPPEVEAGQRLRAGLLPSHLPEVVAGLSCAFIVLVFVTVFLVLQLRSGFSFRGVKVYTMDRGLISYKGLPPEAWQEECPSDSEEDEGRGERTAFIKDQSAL

[10] = biological target: T1, Suppressor of tumorigenicity 14 protein; assay: Inhibition of human Matriptase transfected in HEK293SL cells using Boc-QAR-AMC as substrate measured for 24 hrs; assay type: cell-based
Prothrombin = Prothrombin (Homo sapiens, UniProt P00734); assay: Inhibition of recombinant human thrombin using Boc-QAR-AMC as substrate assessed as inhibition constant by fluorescence based analysis
Homo sapiens [11] = species: Homo sapiens; assay: Selectivity index, ratio of Ki for mixed inhibition of recombinant human Matriptase using Boc-QAR-AMC as substrate assessed as inhibition constant by fluorescence based analysis to Ki for competitive tight binding inhibition of recombinant human TMPRSS6 using Boc-QAR-AMC as substrate assessed as inhibition constant by fluorescence based analysis
[12] = biological target: T2, Transmembrane protease serine 6; assay: Competitive tight binding inhibition of recombinant human TMPRSS6 using Boc-QAR-AMC as substrate assessed as inhibition constant by fluorescence based analysis
Coagulation factor X = Coagulation factor X (Homo sapiens, UniProt P00742); assay: Inhibition of recombinant human FXA using Boc-QAR-AMC as substrate assessed as inhibition constant by fluorescence based analysis
Coagulation factor X, sequence (P00742 41-179 limits assumed): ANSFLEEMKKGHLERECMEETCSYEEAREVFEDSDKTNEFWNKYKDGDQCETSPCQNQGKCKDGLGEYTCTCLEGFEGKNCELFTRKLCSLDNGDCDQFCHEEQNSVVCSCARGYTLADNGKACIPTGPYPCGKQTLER
Coagulation factor X, sequence (P00742 235-488 limits assumed): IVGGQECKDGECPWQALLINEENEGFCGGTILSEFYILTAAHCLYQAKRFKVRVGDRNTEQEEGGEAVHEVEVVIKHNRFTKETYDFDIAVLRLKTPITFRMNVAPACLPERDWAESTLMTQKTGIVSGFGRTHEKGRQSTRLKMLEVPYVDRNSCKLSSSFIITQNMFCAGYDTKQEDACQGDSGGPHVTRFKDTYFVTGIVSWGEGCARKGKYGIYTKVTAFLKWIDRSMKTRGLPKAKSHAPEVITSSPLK

[13] = Solubility of compound in PBS at pH 7.4 measured for 90 mins by UPLC analysis; assay type: physicochemical; conditions: buffer, pH 7.4, 1.5 h
[14] = Stability in Sprague-Dawley rat plasma assessed as parent compound remaining at 24 hrs by UPLC-MS analysis; assay type: ADME, cell-free
[15] = biological target: T2, Transmembrane protease serine 6; assay: Inhibition of human TMPRSS6 transfected in HEK293SL cells using Boc-QAR-AMC as substrate measured for 24 hrs; assay type: cell-based
[16] = Apparent Permeability of compound in PBS buffer at pH 7.4 incubated for 17 hrs by PAMPA assay; assay type: ADME; conditions: pH 7.4, 17 h
[17] = Metabolic stability in Sprague-Dawley rat microsome assessed as intrinsic clearance measured for 120 mins in presence of NADPH by UPLC-MS analysis; assay type: ADME; conditions: microsomes, 2 h

SMILES	Ki [1] [nM]	Ki [2] [nM]	Ratio Ki (Homo sapiens [3])	also measured
CCC[C@H](NC(=O)[C@H](Cc1cscn1)NC(=O)CCc1ccccc1)C(=O)N[C@@H](CCCNC(=N)N)C(=O)c1nc2ccccc2s1				inhibition [4]: 20%; inhibition [5]: 20%
N=C(N)NCCC[C@H](NC(=O)[C@H](Cc1ccc(C(=O)c2ccccc2)cc1)NC(=O)[C@H](Cc1cscn1)NC(=O)CCc1ccccc1)C(=O)c1nc2ccccc2s1				inhibition [4]: inactive; inhibition [5]: inactive
N=C(N)NCCC[C@H](NC(=O)[C@H](Cc1cccc2ccccc12)NC(=O)[C@H](Cc1cscn1)NC(=O)CCc1ccccc1)C(=O)c1nc2ccccc2s1	45.3	3.7	12	Activity [6]: Non-Toxic
CC(C)(C)C[C@H](NC(=O)[C@H](Cc1cscn1)NC(=O)CCc1ccccc1)C(=O)N[C@@H](CCCNC(=N)N)C(=O)c1nc2ccccc2s1	50.8	4.6	11	
N=C(N)NCCC[C@H](NC(=O)[C@H](Cc1ccc2ccccc2c1)NC(=O)[C@H](Cc1cscn1)NC(=O)CCc1ccccc1)C(=O)c1nc2ccccc2s1	53	7.9	6.7	
N=C(N)NCCC[C@H](NC(=O)[C@H](CC12CC3CC(CC(C3)C1)C2)NC(=O)[C@H](Cc1cscn1)NC(=O)CCc1ccccc1)C(=O)c1nc2ccccc2s1				inhibition [4]: inactive; inhibition [5]: inactive
N=C(N)NCCC[C@H](NC(=O)[C@@H](NC(=O)[C@H](Cc1cscn1)NC(=O)CCc1ccccc1)C1CCCCC1)C(=O)c1nc2ccccc2s1	99.2	3.4	29	Ki [7]: 100 nM; t1/2 [8]: > 2 h; Ratio IC50 (Homo sapiens [9]): 16; Ki (Furin): > 10000 nM; IC50 [10]: 352 nM; Ki (Prothrombin): 120 nM; Ratio Ki (Homo sapiens [11]): 19; Ki [12]: 5.3 nM; Ki (Coagulation factor X): > 10000 nM; solubility [13]: 158 µM (≈ 113 µg/mL); Activity [6]: Non-Toxic; Stability [14]: 65%; IC50 [15]: 22 nM; Papp [16]: 0.017 10^-6 cm/s; CLH [17]: 1.12 µL/min/mg
CCCC[C@H](NC(=O)[C@H](Cc1cscn1)NC(=O)CCc1ccccc1)C(=O)N[C@@H](CCCNC(=N)N)C(=O)c1nc2ccccc2s1				inhibition [4]: 20%; inhibition [5]: 20%
CC[C@H](NC(=O)[C@H](Cc1cscn1)NC(=O)CCc1ccccc1)C(=O)N[C@@H](CCCNC(=N)N)C(=O)c1nc2ccccc2s1				inhibition [4]: 20%; inhibition [5]: 20%

The remaining compounds from weak to strong by Ki [1], led by results:

Ki [1] [nM]	Ki [2] [nM]	Ratio Ki (Homo sapiens [3])	SMILES	also measured
33.6	12.5	2.6	N=C(N)NCCC[C@H](NC(=O)[C@@H](NC(=O)[C@H](Cc1cscn1)NC(=O)CCc1ccccc1)c1ccccc1)C(=O)c1nc2ccccc2s1	
26.8	5.6	4.8	N=C(N)NCCC[C@H](NC(=O)[C@H](Cc1ccc(OCc2ccccc2)cc1)NC(=O)[C@H](Cc1cscn1)NC(=O)CCc1ccccc1)C(=O)c1nc2ccccc2s1	
12.3	8.3	1.5	N=C(N)NCCC[C@H](NC(=O)[C@H](CCC1CCCCC1)NC(=O)[C@H](Cc1cscn1)NC(=O)CCc1ccccc1)C(=O)c1nc2ccccc2s1	
11.3	1.2	9.4	CC[C@H](C)[C@H](NC(=O)[C@H](Cc1cscn1)NC(=O)CCc1ccccc1)C(=O)N[C@@H](CCCNC(=N)N)C(=O)c1nc2ccccc2s1	
9.1	3.9	2.3	N=C(N)NCCC[C@H](NC(=O)[C@H](CC1CCCCC1)NC(=O)[C@H](Cc1cscn1)NC(=O)CCc1ccccc1)C(=O)c1nc2ccccc2s1	
8.8	1.4	6.3	CC[C@@H](C)[C@H](NC(=O)[C@H](Cc1cscn1)NC(=O)CCc1ccccc1)C(=O)N[C@@H](CCCNC(=N)N)C(=O)c1nc2ccccc2s1	
5	1.5	3.3	CC(C)C[C@H](NC(=O)[C@H](Cc1cscn1)NC(=O)CCc1ccccc1)C(=O)N[C@@H](CCCNC(=N)N)C(=O)c1nc2ccccc2s1	
4.1	1.4	2.9	N=C(N)NCCC[C@H](NC(=O)[C@H](Cc1ccccc1)NC(=O)[C@H](Cc1cscn1)NC(=O)CCc1ccccc1)C(=O)c1nc2ccccc2s1	
3.3	2.2	1.5	N=C(N)NCCC[C@H](NC(=O)[C@H](CCc1ccccc1)NC(=O)[C@H](Cc1cscn1)NC(=O)CCc1ccccc1)C(=O)c1nc2ccccc2s1	
